Assay results published in paper PMC5701174 (Scientific Reports, 2017).

Target: T1, PlaA (rPlaA, Strep-PlaA) (Legionella pneumophila, UniProt A0A378KFD4)
T1 construct: gene NCTC12000_02489
Settings: 37 °C, 3 h; 25 ng protein in 50 µl; without ProA

T1 sequence (A0A378KFD4 20-309 limits assumed): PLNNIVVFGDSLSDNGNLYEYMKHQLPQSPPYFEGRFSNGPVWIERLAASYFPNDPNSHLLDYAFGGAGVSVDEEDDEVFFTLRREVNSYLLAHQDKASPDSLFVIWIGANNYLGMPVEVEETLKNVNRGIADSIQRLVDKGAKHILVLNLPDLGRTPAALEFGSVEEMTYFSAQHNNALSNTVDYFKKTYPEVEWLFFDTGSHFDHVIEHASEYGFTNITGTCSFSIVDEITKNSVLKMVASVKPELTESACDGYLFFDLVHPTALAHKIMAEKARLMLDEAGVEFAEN

| Structure (SMILES) | free fatty acid quantification |
| --- | --- |
| CCCCCCCCCCCCCCCC(=O)OC[C@@H](O)COP(=O)([O-])OCC[N+](C)(C)C [LPC, 1-monopalmitoyllyso-phosphatidylcholine] | rPlaA possessed lipase and LPLA activities, the latter especially towards LPG and LPC |
| CCCCCCCCCCCCCCCC(=O)OC[C@@H](O)COP(=O)(O)OCC(O)CO (some centres unmarked) [LPG, 1-mono-palmitoyllysophosphatidylglycerol] | rPlaA possessed lipase and LPLA activities, the latter especially towards LPG and LPC |
